In this assay the test system is Streptococcus mutans. In words: Antimicrobial activity against Streptococcus mutans MT509. It counts as functional.

Molecules are shown by their SMILES. Converted amounts (≈) assume the structure as drawn.

This note sets out measurements from ChEMBL document CHEMBL1154580, “Identification and total synthesis of a novel dimethylated fatty acid from the Caribbean sponge Calyx podatypa” (2000).

As a reminder, the MIC is the lowest concentration found to suppress growth. Higher therefore signals weaker potency.

As for `CCC(C)CCCCCCCCCCC(=O)O` (configuration not stated), the lowest concentration to inhibit growth (MIC) was 3.13 µg/mL (≈ 12.9 µM).

Regarding `CC(C)CCCCCCCCCCCC(=O)O`, the MIC stood at 3.13 µg/mL (≈ 12.9 µM).
